Test results from PubChem BioAssay (NCI).
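48-hour exposure; five concentrations; linearly interpolated endpoints. TGI denotes the concentration required for complete inhibition of growth.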

Assays:
Assay in all cases: growth of human tumour cells (NCI), 48 h
XF 498 CNS = tested on: XF 498 CNS
HT29 colon = tested on: HT29 colon
LOX IMVI melanoma = tested on: LOX IMVI melanoma
ACHN renal = tested on: ACHN renal
SK-MEL-28 melanoma = tested on: SK-MEL-28 melanoma
NCI-H23 lung = tested on: NCI-H23 lung
SK-OV-3 ovarian = tested on: SK-OV-3 ovarian
CCRF-CEM leukemia = tested on: CCRF-CEM leukemia
SNB-75 CNS = tested on: SNB-75 CNS
NCI-H226 lung = tested on: NCI-H226 lung
RXF-631 renal = tested on: RXF-631 renal
M19-MEL melanoma = tested on: M19-MEL melanoma
M14 melanoma = tested on: M14 melanoma
HL-60(TB) leukemia = tested on: HL-60(TB) leukemia
SF-295 CNS = tested on: SF-295 CNS
K-562 leukemia = tested on: K-562 leukemia
SF-539 CNS = tested on: SF-539 CNS
RPMI-8226 leukemia = tested on: RPMI-8226 leukemia
OVCAR-8 ovarian = tested on: OVCAR-8 ovarian
HCC-2998 colon = tested on: HCC-2998 colon
A498 renal = tested on: A498 renal
EKVX NSCLC = tested on: EKVX NSCLC
NCI-H460 lung = tested on: NCI-H460 lung
UACC-62 melanoma = tested on: UACC-62 melanoma
DMS 114 small cell lung = tested on: DMS 114 small cell lung
SN12C renal = tested on: SN12C renal
HOP-18 NSCLC = tested on: HOP-18 NSCLC
IGROV1 ovarian = tested on: IGROV1 ovarian
SF-268 CNS = tested on: SF-268 CNS
UO-31 renal = tested on: UO-31 renal
COLO 205 colon = tested on: COLO 205 colon
HOP-92 NSCLC = tested on: HOP-92 NSCLC
RXF 393 renal = tested on: RXF 393 renal
SR leukemia = tested on: SR leukemia
A549 NSCLC = tested on: A549 NSCLC
MOLT-4 leukemia = tested on: MOLT-4 leukemia
SNB-19 CNS = tested on: SNB-19 CNS
OVCAR-3 ovarian = tested on: OVCAR-3 ovarian
TK-10 renal = tested on: TK-10 renal
CAKI-1 renal = tested on: CAKI-1 renal
KM12 colon = tested on: KM12 colon
HCT-116 colon = tested on: HCT-116 colon
SK-MEL-5 melanoma = tested on: SK-MEL-5 melanoma
MALME-3M melanoma = tested on: MALME-3M melanoma
KM20L2 colon = tested on: KM20L2 colon
HOP-62 NSCLC = tested on: HOP-62 NSCLC
HCT-15 colon = tested on: HCT-15 colon
NCI-H522 lung = tested on: NCI-H522 lung
DLD-1 colon = tested on: DLD-1 colon
OVCAR-5 ovarian = tested on: OVCAR-5 ovarian
LXFL 529 NSCLC = tested on: LXFL 529 NSCLC
UACC-257 melanoma = tested on: UACC-257 melanoma
U251 CNS = tested on: U251 CNS
786-0 renal = tested on: 786-0 renal

Nc1ccc(CCN2CCN(c3cccc(C(F)(F)F)c3)CC2)cc1
TGI (XF 498 CNS): > 100 µM
TGI (HT29 colon): > 100 µM
TGI (LOX IMVI melanoma): > 100 µM
TGI (ACHN renal): > 100 µM
TGI (SK-MEL-28 melanoma): > 100 µM
TGI (NCI-H23 lung): > 100 µM
TGI (SK-OV-3 ovarian): > 100 µM
TGI (CCRF-CEM leukemia): > 100 µM
TGI (SNB-75 CNS): > 100 µM
TGI (NCI-H226 lung): > 100 µM
TGI (RXF-631 renal): > 100 µM
TGI (M19-MEL melanoma): > 100 µM
TGI (M14 melanoma): > 100 µM
TGI (HL-60(TB) leukemia): 41.8 µM
TGI (SF-295 CNS): > 100 µM
TGI (K-562 leukemia): > 100 µM
TGI (SF-539 CNS): > 100 µM
TGI (RPMI-8226 leukemia): > 100 µM
TGI (OVCAR-8 ovarian): > 100 µM
TGI (HCC-2998 colon): > 100 µM
TGI (A498 renal): > 100 µM
TGI (EKVX NSCLC): > 100 µM
TGI (NCI-H460 lung): > 100 µM
TGI (UACC-62 melanoma): > 100 µM
TGI (DMS 114 small cell lung): > 100 µM
TGI (SN12C renal): > 100 µM
TGI (HOP-18 NSCLC): > 100 µM
TGI (IGROV1 ovarian): > 100 µM
TGI (SF-268 CNS): > 100 µM
TGI (UO-31 renal): > 100 µM
TGI (COLO 205 colon): > 100 µM
TGI (HOP-92 NSCLC): > 100 µM
TGI (RXF 393 renal): > 100 µM
TGI (SR leukemia): > 100 µM
TGI (A549 NSCLC): > 100 µM
TGI (MOLT-4 leukemia): 89.7 µM
TGI (SNB-19 CNS): > 100 µM
TGI (OVCAR-3 ovarian): > 100 µM
TGI (TK-10 renal): > 100 µM
TGI (CAKI-1 renal): > 100 µM
TGI (KM12 colon): > 100 µM
TGI (HCT-116 colon): > 100 µM
TGI (SK-MEL-5 melanoma): > 100 µM
TGI (MALME-3M melanoma): > 100 µM
TGI (KM20L2 colon): > 100 µM
TGI (HOP-62 NSCLC): > 100 µM
TGI (HCT-15 colon): > 100 µM
TGI (NCI-H522 lung): > 100 µM
TGI (DLD-1 colon): > 100 µM
TGI (OVCAR-5 ovarian): > 100 µM
TGI (LXFL 529 NSCLC): > 100 µM
TGI (UACC-257 melanoma): > 100 µM
TGI (U251 CNS): > 100 µM
TGI (786-0 renal): > 100 µM
